This is an account of results in patent publication US10071967B2, “N-cycloalkyl-N-{[2-(1-substitutedcycloalkyl)phenyl]methylene}-(thio)carboxamide derivatives” (BAYER CROPSCIENCE AKTIENGESELLSCHAFT, priority 2013, dated 2018).

The series in a line: log P by HPLC on a reversed-phase column (C 18), EEC Directive 79/831 Annex V.A8. It is filed as physicochemical. The conditions noted are these: HPLC, reversed-phase column (C 18), 40° C.; 0.1% aqueous formic acid and acetonitrile, linear gradient 10% to 90% acetonitrile. Here is the method:
In table 1, the log P values were determined in accordance with EEC Directive 79/831 Annex V.A8 by HPLC (High Performance Liquid Chromatography) on a reversed-phase column (C 18), using the method described below: Temperature: 40° C.; Mobile phases: 0.1% aqueous formic acid and acetonitrile; linear gradient from 10% acetonitrile to 90% acetonitrile. Calibration was carried out using unbranched alkan-2-ones (comprising 3 to 16 carbon atoms) with known log P values (determination of the log P values by the retention times using linear interpolation between two successive alkanones). lambda-max-values were determined using UV-spectra from 200 nm to 400 nm and the peak values of the chromatographic signals.

Take `CCC1(c2cc(C)ccc2CN(C(=O)c2cn(C)nc2C(F)F)C2CC2)CC1` [Example 1.074]: the logP (as a rule, a log measure of how a compound divides between an organic and an aqueous phase) came to 4.16.

As for `CCC1(c2cc(C)ccc2CN(C(=O)c2c(C)nn(C)c2F)C2CC2)CC1` [Example 1.075], the lipophilicity (logP) is 4.11.

In the case of `CCC1(c2cc(C)ccc2CN(C(=S)c2cn(C)nc2C(F)F)C2CC2)CC1` [Example 1.076], the logP amounted to 4.67.

With `CCC1(c2cc(C(F)(F)F)ccc2CN(C(=O)c2cn(C)nc2C(F)F)C2CC2)CC1` [Example 1.077], the lipophilicity (logP) is given as 4.36.

`CCC1(c2cc(C)c(F)cc2CN(C(=O)c2c(C)nn(C)c2Cl)C2CC2)CC1` [Example 1.078]: the log partition coefficient (logP) worked out at 4.49.

The compound `CCC1(c2cc(C)c(F)cc2CN(C(=O)c2nn(C)nc2C(F)F)C2CC2)CC1` [Example 1.079] displayed a logP of 4.85.

`CCC1(c2cc(C)c(F)cc2CN(C(=O)c2cc(C)oc2C(F)F)C2CC2)CC1` [Example 1.080] showed a logP of 5.25.

As for `CCC1(c2cc(C)c(F)cc2CN(C(=O)c2cn(C)nc2C(F)F)C2CC2)CC1` [Example 1.081], the lipophilicity (logP) is on record as 4.24.

`CCC1(c2cc(C)c(F)cc2CN(C(=O)c2c(C)nn(C)c2F)C2CC2)CC1` [Example 1.082]: the logP was found to be 4.26.

`CCC1(c2cc(C)c(F)cc2CN(C(=O)c2cc(C)oc2C)C2CC2)CC1` [Example 1.083] displayed a lipophilicity (logP) of 5.34.

In the case of `CCC1(c2ccc(C(F)(F)F)cc2CN(C(=O)c2c(C)nn(C)c2F)C2CC2)CC1` [Example 1.084], the log partition coefficient (logP) turned out to be 4.34.

For the compound `CCC1(c2ccc(C(F)(F)F)cc2CN(C(=O)c2cn(C)nc2C(F)F)C2CC2)CC1` [Example 1.085], the log partition coefficient (logP) was 4.27.

Consider `CCC1(c2ccc(Cl)cc2CN(C(=O)c2cn(C)nc2C(F)F)C2CC2)CC1` [Example 1.086], for which the logP turned out to be 4.18.

Turning to `CCC1(c2ccc(Cl)cc2CN(C(=O)c2c(C)nn(C)c2F)C2CC2)CC1` [Example 1.087], the log partition coefficient (logP) is 4.23.

Consider `CCC1(c2ccc(Cl)cc2CN(C(=O)c2cc(C)oc2C)C2CC2)CC1` [Example 1.088], for which the logP was 5.31.

For the compound `CCC1(c2ccc(Cl)cc2CN(C(=O)c2c(OC(F)F)nn(C)c2F)C2CC2)CC1` [Example 1.089], the lipophilicity (logP) is recorded as 4.78.

For the compound `CCC1(c2ccc(Cl)cc2CN(C(=O)c2c(OC(F)F)nn(C)c2Cl)C2CC2)CC1` [Example 1.090], the logP turned out to be 5.03.

On to `CCC1(c2ccc(Cl)cc2CN(C(=O)c2c(OC(F)F)nn(C)c2C(F)(F)F)C2CC2)CC1` [Example 1.091], for which the logP was determined as 5.36.

For `CCC1(c2ccc(C)cc2CN(C(=O)c2cn(C)nc2C(F)F)C2CC2)CC1` [Example 1.092], the logP was determined as 4.19.

The compound `CCC1(c2ccc(C)cc2CN(C(=O)c2c(C)nn(C)c2F)C2CC2)CC1` [Example 1.093] had a logP of 4.14.

For `CCC1(c2ccc(C)cc2CN(C(=O)c2nn(C)nc2C(F)F)C2CC2)CC1` [Example 1.094], the logP is reported as 4.77.

The compound `CCC1(c2ccc(C)cc2CN(C(=O)c2cc(C)oc2C(F)F)C2CC2)CC1` [Example 1.095] displayed a logP of 5.22.

Regarding `CCC1(c2ccc(C)cc2CN(C(=O)c2c(C)nn(C)c2Cl)C2CC2)CC1` [Example 1.096], the logP is 4.36.

Turning to `CCC1(c2ccc(C)cc2CN(C(=O)c2cc(C)oc2C)C2CC2)CC1` [Example 1.097], the logP was 5.14.

For the compound `CCC1(c2ccc(C)cc2CN(C(=O)c2c(OC(F)F)nn(C)c2F)C2CC2)CC1` [Example 1.098], the logP is given as 4.72.

Take `CCC1(c2ccc(C)cc2CN(C(=S)c2cn(C)nc2C(F)F)C2CC2)CC1` [Example 1.099]: the logP was found to be 4.69.

Regarding `CCC1(c2ccc(C)cc2CN(C(=O)c2c(OC(F)F)nn(C)c2C(F)(F)F)C2CC2)CC1` [Example 1.100], the logP was 5.35.

The compound `CCC1(c2ccc(C)cc2CN(C(=O)c2c(OC(F)F)nn(C)c2Cl)C2CC2)CC1` [Example 1.101] had a log partition coefficient (logP) of 2.84.

The compound `CCC1(c2cccc(F)c2CN(C(=O)c2cn(C)nc2C(F)F)C2CC2)CC1` [Example 1.102] had a logP of 3.74.

`CCC1(c2cccc(F)c2CN(C(=O)c2c(C)nn(C)c2F)C2CC2)CC1` [Example 1.103] gave a lipophilicity (logP) of 3.63.

Compound `COC1(c2ccccc2CN(C(=O)c2cn(C)nc2C(F)F)C2CC2)CC1` [Example 1.104] had a logP of 2.88.

As for `Cc1ccc(C2(Cl)CC2)c(CN(C(=O)c2cn(C)nc2C(F)F)C2CC2)c1` [Example 1.105], the logP turned out to be 3.51.

Compound `Cc1ccc(C2(Cl)CC2)c(CN(C(=O)c2c(C)nn(C)c2F)C2CC2)c1` [Example 1.106] registered a logP of 3.42.

On to `Cc1ccc(C2(C3CC3)CC2)c(CN(C(=O)c2cn(C)nc2C(F)F)C2CC2)c1` [Example 1.107], for which the log partition coefficient (logP) turned out to be 4.11.

Compound `Cc1ccc(C2(C3CC3)CC2)c(CN(C(=O)c2c(C)nn(C)c2F)C2CC2)c1` [Example 1.108] displayed a log partition coefficient (logP) of 4.11.

In turn, `Cc1ccc(C2(C3CC3)CC2)c(CN(C(=O)c2cc(C)oc2C)C2CC2)c1` [Example 1.109] displayed a logP of 5.05.

Regarding `CCCC1(c2cc(Cl)ccc2CN(C(=O)c2cc(C)oc2C(F)F)C2CC2)CC1` [Example 1.111], the logP was 5.78.

For `CCCC1(c2cc(Cl)ccc2CN(C(=O)c2nn(C)nc2C(F)F)C2CC2)CC1` [Example 1.112], the logP was 5.31.

As to `CCCC1(c2ccc(C)cc2CN(C(=O)c2cn(C)nc2C(F)F)C2CC2)CC1` [Example 1.114], the logP worked out at 4.59.

Compound `CCCC1(c2ccc(C)cc2CN(C(=O)c2cc(C)oc2C)C2CC2)CC1` [Example 1.115] returned a lipophilicity (logP) of 5.62.

`CCCC1(c2ccc(C)cc2CN(C(=S)c2cn(C)nc2C(F)F)C2CC2)CC1` [Example 1.116] gave a logP of 5.08.

Compound `Cc1ccc(C2(C(C)C)CC2)c(CN(C(=O)c2nn(C)cc2C(F)F)C2CC2)c1` [Example 1.117] showed a logP of 4.90.

The compound `Cc1ccc(C2(C(C)C)CC2)c(CN(C(=O)c2cc(C)oc2C)C2CC2)c1` [Example 1.118] gave a lipophilicity (logP) of 5.65.

As to `Cc1ccc(C2(C(C)C)CC2)c(CN(C(=O)c2c(C)nn(C)c2Cl)C2CC2)c1` [Example 1.119], the lipophilicity (logP) stood at 4.80.

The compound `Cc1ccc(C2(C(C)C)CC2)c(CN(C(=O)c2cc(C)oc2C(F)F)C2CC2)c1` [Example 1.120] had a logP of 5.54.

In turn, `Cc1ccc(C2(C(C)C)CC2)c(CN(C(=O)c2nn(C)nc2C(F)F)C2CC2)c1` [Example 1.121] registered a logP of 5.08.

Compound `Cc1ccc(C2(C(C)C)CC2)c(CN(C(=O)c2c(C)nn(C)c2F)C2CC2)c1` [Example 1.122] gave a logP of 4.54.

`Cc1ccc(C2(C(C)C)CC2)c(CN(C(=O)c2cn(C)nc2C(F)F)C2CC2)c1` [Example 1.123] returned a logP of 4.49.

`Cc1ccc(C2(C(C)C)CC2)c(CN(C(=O)c2cn(C)nc2C)C2CC2)c1` [Example 1.124] showed a logP of 3.96.

In the case of `Cc1ccc(C2(C(C)C)CC2)c(CN(C(=S)c2cn(C)nc2C(F)F)C2CC2)c1` [Example 1.125], the logP was 4.98.

`CCOC1(c2ccc(C)cc2CN(C(=O)c2nn(C)nc2C(F)F)C2CC2)CC1` [Example 1.126]: the logP is recorded as 4.21.

In turn, `CCOC1(c2ccc(C)cc2CN(C(=O)c2c(C)nn(C)c2F)C2CC2)CC1` [Example 1.127] yielded a logP of 3.53.

In turn, `CCOC1(c2ccc(C)cc2CN(C(=O)c2cn(C)nc2C(F)F)C2CC2)CC1` [Example 1.128] had a logP of 3.60.

Regarding `CCOC1(c2ccc(C)cc2CN(C(=O)c2cn(C)nc2C)C2CC2)CC1` [Example 1.129], the lipophilicity (logP) is given as 3.02.

In the case of `CCOC1(c2ccc(C)cc2CN(C(=O)c2nn(C)cc2C(F)F)C2CC2)CC1` [Example 1.130], the logP was 3.94.

`CCOC1(c2ccc(C)cc2CN(C(=O)c2c(C)nn(C)c2Cl)C2CC2)CC1` [Example 1.131] showed a logP of 3.71.

Compound `Cn1cc(C(=O)N(Cc2ccccc2C2(C(F)F)CC2)C2CC2)c(C(F)F)n1` [Example 1.132] gave a logP of 3.00.

`Cn1cc(C(=O)N(Cc2ccc(F)cc2C2(C(F)F)CC2)C2CC2)c(C(F)F)n1` [Example 1.133] gave a log partition coefficient (logP) of 3.09.

`Cn1cc(C(=O)N(Cc2cc(Br)ccc2C2(C(F)F)CC2)C2CC2)c(C(F)F)n1` [Example 1.134] had a log partition coefficient (logP) of 3.44.

`Cn1cc(C(=O)N(Cc2cc(Cl)ccc2C2(C(F)F)CC2)C2CC2)c(C(F)F)n1` [Example 1.135] yielded a logP of 3.37.

In turn, `Cc1nn(C)c(F)c1C(=O)N(Cc1cc(Cl)ccc1C1(C(F)F)CC1)C1CC1` [Example 1.136] displayed a logP of 3.33.

The compound `Cn1cc(C(=O)N(Cc2cc(F)ccc2C2(C(F)F)CC2)C2CC2)c(C(F)F)n1` [Example 1.137] displayed a logP of 3.09.

The compound `Cc1ccc(C2(C(F)F)CC2)c(CN(C(=O)c2cn(C)nc2C(F)F)C2CC2)c1` [Example 1.138] showed a logP of 3.29.

`Cc1ccc(C2(C(F)F)CC2)c(CN(C(=O)c2c(C)nn(C)c2F)C2CC2)c1` [Example 1.139]: the log partition coefficient (logP) is 3.21.

`Cc1ccc(C2(C(F)F)CC2)c(CN(C(=S)c2cn(C)nc2C(F)F)C2CC2)c1` [Example 1.140] registered a logP of 3.76.

Take `Cc1ccc(C2(C(F)F)CC2)c(CN(C(=S)c2c(C)nn(C)c2F)C2CC2)c1` [Example 1.141]: the log partition coefficient (logP) is 3.81.

Compound `Cn1cc(C(=O)N(Cc2c(Br)cccc2C2(C(F)F)CC2)C2CC2)c(C(F)F)n1` [Example 1.142] gave a logP of 3.39.

Compound `Cc1nn(C)c(F)c1C(=O)N(Cc1ccc(Cl)cc1C1(CC(C)C)CC1)C1CC1` [Example 1.143] registered a logP of 5.08.
